Assays:
[1] = test system: Adult Spider Mite (Tetranychus cinnabarinus); experiment: Activity against adult spider mite, spray on bean leaves, mortality after 72 h; format: in vivo; details: adult spider mites
Experimental: According to the solubility of test compounds, the compounds were dissolved with acetone or dimethyl sulfoxide, and then diluted with 0.1% aqueous solution of Tween 80 to form 50 ml test liquid and the content of the acetone or the dimethyl sulfoxide in the total solution was not more than 10% for later use. The adult spider mites were put into two true leaves of bean plants. After the number of mites were investigated, the solution of certain concentrations of test compounds was sprayed by using a handheld Airbrush. Three replicates were set for each treatment. Then the leaves were maintained in standard observation room. After 72 h, the number of surviving mites were observed, and the mortality rate was calculated.

Panonychus citri = experiment: Field trial against Panonychus citri on citrus trees; format: in vivo; details: spray, citrus tree
Experimental: The trial was carried out in the citrus orchard in Yibin City, Sichuan Province. The test sample was “Dekopon”. The test citrus trees were 4 years old and the planting density was more than 70 plants/mu. The test compounds 6 and 14 were set at two different doses of 50 mg/L and 100 mg/L.
As the positive controls, Spirodiclofen suspension agent was set at one dose of 100 mg/L, and Pyridaben wettable powder was set at one dose of 100 mg/L. The test method was spraying by using Pentium 3WBD-20 sprayer, each treatment repeated three times. The number of initial mites was investigated before spraying, and the number of surviving mites was checked and recorded. The number of surviving mites was investigated on the 3 days, 7 days, 14 days, 21 days and 30 days after spraying respectively. The decline rate of mite populationg was counted and the control efficiency was calculated.

[2] = test system: Egg of Spider Mite (Tetranychus Cinnabarinus); experiment: Activity against egg of spider mite, POTTER spray tower, incubation inhibition; format: in vivo; details: spider mite eggs; for inhibition at 1.25 µg/mL: Tetranychus cinnabarinus, read-out: Inhibition Rate (%)
Experimental: According to the solubility of test compounds, the compounds were dissolved with acetone or dimethyl sulfoxide, and then diluted with 0.1% aqueous solution of Tween 80 to form 50 ml test liquid and the content of the acetone or the dimethyl sulfoxide in the total solution was not more than 10% for later use. The leaves of bean were chopped into leaf discs and put into a petri dish. Female adult mites were inoculated. After laying eggs, the female adult mites were removed. After the number of eggs were investigated, the solution of certain concentrations of test compounds were sprayed with a POTTER spray tower, for 2 mL per treatment, and blank control was set. When all eggs in the blank control were incubated, the number of eggs which were incubated and unincubated was recorded, and incubation inhibition rate of the eggs was calculated.

Panonychus ulmi = experiment: Field trial for controlling Panonychus ulmi on apple trees; format: in vivo; details: spray, apple tree
Experimental: The trial was carried out in the orchard of Research Institute of Pomology of Chinese Academy of Agricultural Sciences. The test sample was Starkrimson apple tree, which was 14 years old and the intervals between two plants was 2×4 m. The test compound 14 was set at two different doses of 50 mg/L and 100 mg/L, and Spirodiclofen suspension agent as the positive control was set at one dose of 50 mg/L. The test method was spraying by using the stretcher power sprayer, each treatment repeated three times. The number of initial mites was investigated before spraying, and the number of surviving mites was checked and recorded. The number of surviving mites was investigated on the 3 days, 7 days, 14 days and 21 days after spraying respectively. The decline rate of mite population was counted and the control efficiency was calculated.
[formula] • The field trial results for compound 14 against Panonychus ulmi (Xingcheng, Liaoning, May, 2018) were shown in Table 4.Table 4

two-spotted spider mites = details: concentration of 50 ppm; cited from earlier work
[3] = Tetranychus cinnabarinus, 1.25 mg/L

Which “Mortality (%)” value ([1]; 0.625 mg/L) does the source give for Cc1cc(F)c(-c2cccc([N+](=O)[O-])c2)cc1[S+]([O-])CC(F)(F)F (centres unmarked) [Compound 6] here?
The value was 80.6%.

What about the “Mortality (%)” value ([1]; 1.25 mg/L) of the same compound?
The value was 97.6%.

What about the “Control efficiency (%) 3 days after pesticide application” value (from here on “Control efficiency (%) 3 days”) (Panonychus citri; 50 mg/L) of the same compound?
The value was 98.58%.

And the “Control efficiency (%) 7 days after pesticide application” value (from here on “Control efficiency (%) 7 days”) (Panonychus citri; 50 mg/L)?
The value was 96.69%.

And the “Control efficiency (%) 14 days after pesticide application” value (from here on “Control efficiency (%) 14 days”) (Panonychus citri; 50 mg/L)?
The value was 99.28%.

And the “Control efficiency (%) 21 days after pesticide application” value (shortened to “Control efficiency (%) 21 days”) (Panonychus citri; 50 mg/L)?
Its value is 95.86%.

And the “Control efficiency (%) 30 days after pesticide application” value (“Control efficiency (%) 30 days” below) (Panonychus citri; 50 mg/L)?
Its value is 94.62%.

For Cc1cc(F)c(-c2ccccc2[N+](=O)[O-])cc1SCC(F)(F)F [KC6], which mortality at 1.25 µg/mL [1, 3] is on record?
The mortality at 1.25 µg/mL was 0%.

With O=[N+]([O-])c1cccc(-c2cc(SCC(F)(F)F)c(Cl)cc2F)c1 [Compound 8] as the compound, how does the “Mortality (%)” value ([1]; 0.625 mg/L) read?
Its value is 65.2%.

What about the “Mortality (%)” value ([1]; 1.25 mg/L) of the same compound?
Its value is 90.7%.

With Cc1cc(F)c(-c2ccc([N+](=O)[O-])cc2)cc1SCC(F)(F)F [KC5] as the compound, how does the mortality at 0.625 µg/mL ([1]; Tetranychus cinnabarinus, 0.625 mg/L) read?
Its mortality at 0.625 µg/mL is 29.8%.

And the mortality at 1.25 µg/mL [1, 3]?
Its mortality at 1.25 µg/mL is 71.7%.

Which “Inhibition Rate (%)” value ([2]; 0.625 mg/L) does the source give for Cc1cc(F)c(-c2cccc(SCC(F)(F)F)c2)cc1SCC(F)(F)F [Compound 19] here?
Its value is 51.2%.

And the “Inhibition Rate (%)” value ([2]; 1.25 mg/L)?
The value was 81.1%.

With Cc1cc(F)c(-c2cccc([N+](=O)[O-])c2)cc1SCC(F)(F)F [Compound 5] as the compound, how does the “Inhibition Rate (%)” value ([2]; 0.625 mg/L) read?
The value was 100%.

What about the “Inhibition Rate (%)” value ([2]; 1.25 mg/L) of the same compound?
Its value is 100%.

And the “Mortality (%)” value ([1]; 0.625 mg/L)?
The value was 95.5%.

What about the “Mortality (%)” value ([1]; 1.25 mg/L) of the same compound?
The value was 100%.

With Cc1cc(F)c(-c2cccc(OC(F)(F)F)c2)cc1SCC(F)(F)F [KC3, reference compound] as the compound, how does the inhibition at 1.25 µg/mL ([2]; 1.25 mg/L) read?
The inhibition at 1.25 µg/mL was 20.7%.

What about the mortality at 1.25 µg/mL [1, 3] of the same compound?
Its mortality at 1.25 µg/mL is 50.7%.

With Cc1cc(F)c(-c2ccc(C(F)(F)F)cc2)cc1SCC(F)(F)F [KC1, reference compound] as the compound, how does the inhibition at 1.25 µg/mL ([2]; 1.25 mg/L) read?
Its inhibition at 1.25 µg/mL is 26.2%.

And the mortality at 1.25 µg/mL [1, 3]?
The mortality at 1.25 µg/mL was 36.5%.

With Cc1cc(F)c(-c2cccc(C(F)(F)F)c2)cc1SCC(F)(F)F [KC2, reference compound] as the compound, how does the inhibition at 1.25 µg/mL ([2]; 1.25 mg/L) read?
Its inhibition at 1.25 µg/mL is 36.7%.

What about the mortality at 1.25 µg/mL [1, 3] of the same compound?
The mortality at 1.25 µg/mL was 56.6%.

For CCC(C)(C)C(=O)OC1=C(c2ccc(Cl)cc2Cl)C(=O)OC12CCCCC2 [Spirodiclofen, reference compound], which “Control efficiency (%) 3 days” value (Panonychus ulmi; 50 mg/L) is on record?
The value was 49.6%.

And the “Control efficiency (%) 7 days” value (Panonychus ulmi; 50 mg/L)?
The value was 45.8%.

And the “Control efficiency (%) 14 days” value (Panonychus ulmi; 50 mg/L)?
The value was 90.3%.

And the “Control efficiency (%) 21 days” value (Panonychus ulmi; 50 mg/L)?
Its value is 94.9%.

What about the “Control efficiency (%) 3 days” value (Panonychus citri; 100 mg/L) of the same compound?
Its value is 91.09%.

And the “Control efficiency (%) 7 days” value (Panonychus citri; 100 mg/L)?
The value was 80.88%.

And the “Control efficiency (%) 14 days” value (Panonychus citri; 100 mg/L)?
The value was 80.88%.

What about the “Control efficiency (%) 21 days” value (Panonychus citri; 100 mg/L) of the same compound?
Its value is 72.63%.

What about the “Control efficiency (%) 30 days” value (Panonychus citri; 100 mg/L) of the same compound?
The value was 73.60%.

Which results are given for Cc1cc(F)c(-c2cccc(SCc3ccccc3)c2)cc1SCC(F)(F)F [KC4]?
lethal activity (two-spotted spider mites): more than 90%; inhibition at 1.25 µg/mL ([2]; 1.25 mg/L): 40.8%; mortality at 1.25 µg/mL [1, 3]: 16.4%

With CC(C)(C)c1ccc(CSc2cnn(C(C)(C)C)c(=O)c2Cl)cc1 [Pyridaben, reference compound] as the compound, how does the “Control efficiency (%) 3 days” value (Panonychus citri; 100 mg/L) read?
The value was 80.24%.

What about the “Control efficiency (%) 7 days” value (Panonychus citri; 100 mg/L) of the same compound?
Its value is 61.51%.

And the “Control efficiency (%) 14 days” value (Panonychus citri; 100 mg/L)?
Its value is 61.51%.

What about the “Control efficiency (%) 21 days” value (Panonychus citri; 100 mg/L) of the same compound?
The value was 51.62%.

What about the “Control efficiency (%) 30 days” value (Panonychus citri; 100 mg/L) of the same compound?
The value was 56.60%.

For CSc1cccc(-c2cc(SCC(F)(F)F)c(C)cc2F)c1 [Compound 14], which “Control efficiency (%) 3 days” value (Panonychus ulmi; 50 mg/L) is on record?
The value was 92.2%.

What about the “Control efficiency (%) 7 days” value (Panonychus ulmi; 50 mg/L) of the same compound?
Its value is 86.4%.

And the “Control efficiency (%) 14 days” value (Panonychus ulmi; 50 mg/L)?
Its value is 97.3%.

And the “Control efficiency (%) 21 days” value (Panonychus ulmi; 50 mg/L)?
The value was 93.2%.

What about the “Control efficiency (%) 3 days” value (Panonychus ulmi; 100 mg/L) of the same compound?
Its value is 94.4%.

And the “Control efficiency (%) 7 days” value (Panonychus ulmi; 100 mg/L)?
Its value is 96.6%.

What about the “Control efficiency (%) 14 days” value (Panonychus ulmi; 100 mg/L) of the same compound?
The value was 99.8%.

And the “Control efficiency (%) 21 days” value (Panonychus ulmi; 100 mg/L)?
Its value is 99.1%.

And the “Inhibition Rate (%)” value ([2]; 0.625 mg/L)?
Its value is 65.3%.

What about the “Inhibition Rate (%)” value ([2]; 1.25 mg/L) of the same compound?
The value was 95.8%.

What about the “Control efficiency (%) 3 days” value (Panonychus citri; 50 mg/L) of the same compound?
The value was 99.61%.

What about the “Control efficiency (%) 7 days” value (Panonychus citri; 50 mg/L) of the same compound?
Its value is 98.90%.

And the “Control efficiency (%) 14 days” value (Panonychus citri; 50 mg/L)?
Its value is 99.08%.

And the “Control efficiency (%) 21 days” value (Panonychus citri; 50 mg/L)?
The value was 98.57%.

What about the “Control efficiency (%) 30 days” value (Panonychus citri; 50 mg/L) of the same compound?
The value was 97.35%.

From patent US12655099B2, “Substituted phenyl sulfide compound and application thereof” (SHENYANG SINOCHEM AGROCHEMICALS R&D CO., LTD., priority 2020, dated 2026)
